Earlier results on three compounds are cited in patent publication US4340609A, “Amidinourea derivative veterinary compositions for suppression of parasitemia” (William H. Rorer, Inc., priority 1980, dated 1982).

The series concerns Babesis caballi, or B. equi. The conditions noted are these: horses; reported; cited from earlier work.
For the compound `C[n+]1cccc2cc(NC(=O)Nc3ccc4c(ccc[n+]4C)c3)ccc21` [acaprin], the “effect on equine piroplasmosis parasites” value is “only to reduce the number of parasites”. For the compound `N=C(N)c1ccc(N=NNc2ccc(C(=N)N)cc2)cc1` [birenil], the “effect on equine piroplasmosis parasites” value was “only to reduce the number of parasites”. On to acriflavin, for which the “effect on equine piroplasmosis parasites” value is “only to reduce the number of parasites”.
